Here are results for 13 compounds from patent US11535633B2, “Fused tricyclic heterocycle compounds and therapeutic uses thereof” (Jiangsu Hengrui Medicine Co., Ltd., priority 2018, dated 2022).

Experiment [1] relates to Human PBMC cells. The experiment can be described thus: IFNβ secretion in human PBMC. The format is cell-based. The settings on record: IFNβ in supernatant by ELISA, 5 hours incubation. As for the experimental part:
Test Example 3. IFNβ Secretion in Human PBMC
• 1. Human PBMC cells (STEMCELL Technologies) • 2. Lymphocyte Medium (Zenbio) • 3. Culture and compound dilution media: RPMI with high glucose and glutamine (Genesee, Cat. #25-506), 10% fetal bovine serum (Life Technologies, Cat. #10082147), 100 μg/ml Normocin (InvivoGen, Cat. #ant-nr-2) and Penicillin-Streptomycin (100×) (Life Technologies, Cat. #15140122) • 4. Human IFNβ Quantikine ELISA kit (R&D systems) • 5. Infinite M1000 plate reader (TECAN) Experimental Procedure
Cryopreserved peripheral blood human mononuclear cells (PBMCs) were rapidly thawed and resuspended in Lymphocyte Media and centrifuged at 500×g for 5 minutes. The supernatant was removed and the cell pellets were gently resuspended in cell culture and compound dilution media. Human PBMC cells were plated in a 96-well format at a concentration of 1.5×10^5 cells per well. The test compounds, at varying concentrations, or vehicle control (<0.3% DMSO) were mixed with the cells giving a final volume of 150 μl per well. The plates were incubated for 5 hours in a humidified, 5% CO2 incubator at 37° C. After incubation, the human IFNβ in the supernatant and the IFNβ standard controls were measured using human IFNβ Quantikine ELISA kit according to the manufacturer's protocol. The absorbance at 450 nm was measured with Infinite M1000 plate reader and corrected by background reading at 540 nm of each well. The amount of […] based on the standard curves. The plot of IFNβ concentration versus the log of compound concentration was fit in GraphPad Prism with a 4-parameter concentration response equation to calculate EC50 and Emax.
Background: In an ELISA, binding on a coated surface is turned into a signal by an enzyme label.

Experiment [2] has as its target T1, STING in THP1-Dual KI-hSTING-R232 cells (Homo sapiens, UniProt Q86WV6, H232R).
T1 construct: host or cells: THP1-Dual KI-hSTING-R232 cells (human monocytic THP-1 reporter line)
The experiment can be described thus: Human THP1 reporter cell assay (IRF luciferase reporter). The format is cell-based. The settings on record: 24 hours incubation. As for the experimental part:
Test Example 2. Human THP1 Reporter Cell Assay
• 1. Human THP1-Dual KI-hSTING-R232 Cells (InvivoGen, Cat. #thpd-r232) • 2. QUANTI-LUC (InvivoGen, Cat. #rep-qlc2) • 3. Media for cell culture and compound dilution: RPMI with high glucose and glutamine (Genesee, Cat. #25-506), 10% fetal bovine serum (Life Technologies, Cat. #10082147), 25 mM HEPES (Genesee, Cat. #25-534), 100 μg/ml Normocin (InvivoGen, Cat. #ant-nr-2), 10 μg/ml blasticidin (InvivoGen, Cat. #ant-bl-05), 100 μg/ml Zeocin (InvivoGen, Cat. #ant-zn-5p) and Penicillin-Streptomycin (100×) (Life Technologies, Cat. #15140122) • 4. Infinite M1000 plate reader (TECAN) Experimental Procedure
Activation of STING in THP1-Dual KI-hSTING-R232 cells was determined by measuring the luminescence signal resulting from the expression of the IRF luciferase reporter gene. All reagent preparation and assay procedures were conducted according to the protocols provided by InvivoGen. In brief, test compounds and cells (1×10^5 cells per well) were dispensed into 96-well plates with a final volume per well of 150 μl. Plates were incubated in a humidified, 5% CO2 incubator at 37° C. for 24 hours. The expression level of the reporter gene was measured by transferring 20 μl of the supernatant to a non-transparent 96-well plate to which 50 μl of QUANTI-LUC was dispensed into each well. The resulting luminescence signal was immediately read using a TECAN plate reader. The background luminescence signal from media was subtracted. The fold induction effect of the luminescence signal at each compound concentration was determined relative to controls that lack compound treatment. The plot of fold induction effect versus the log of compound concentration was fit in GraphPad Prism with a 4-parameter concentration response equation to calculate EC50 and Emax.
Activation of STING in THP1 of the compounds in the present invention was determined by the above assay, and EC50 values are shown in the following table 2.

In experiment [3] the target is T2, hSTING c-terminal domain (purified hSTING aa154-342) (Homo sapiens, UniProt Q86WV6).
T2 construct: Purified hSTING (aa154-342)
T2 sequence (Q86WV6 154-342): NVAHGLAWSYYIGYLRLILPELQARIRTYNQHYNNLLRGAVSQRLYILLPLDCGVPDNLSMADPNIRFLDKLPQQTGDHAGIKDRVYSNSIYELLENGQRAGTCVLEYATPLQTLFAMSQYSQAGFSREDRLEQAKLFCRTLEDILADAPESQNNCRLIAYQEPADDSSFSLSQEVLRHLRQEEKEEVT
The experiment in a line: Thermal shift assay for measuring the relative binding affinity to hSTING c-terminal domain. As to conditions: Tm of sample minus mean Tm of negative control (buffer, 2% DMSO), SYPRO Orange. As for the experimental part: Test Example 1. Thermal Shift Assay for Measuring the Relative Binding Affinity to hSTING c-Terminal Domain
From each of the 10 mM stock solutions of compounds in DMSO, dilutions are made to create samples with three concentrations 10 mM, 5 mM and 2.5 mM. From these dilutions a final 50 fold dilution is made into assay buffer, giving concentrations of 200 μM, 100 μM, and 50 μM. From each of the buffer dilutions, 5 μL is added to the 384 well assay plate. A positive control is setup with cGAMP using the same dilution scheme as the ligands. A baseline thermal shift for the negative control is determined using buffer and 2% DMSO.
An aliquot of protein is thawed on ice and SYPRO orange reagent is brought to room temperature. The 5000× SYPRO orange stock is diluted in assay buffer to a concentration of 10×. Protein is diluted to a concentration of 10 μM in the prepared buffer/dye solution. Five micro-liters of protein/buffer/dye solution is added to each of the sample and control wells, and the plate is sealed with the provided films. The plate is centrifuged for 5 min at 20° C. at 1000 rpm.
On the Light Cycler instrument, measurements are made over a temperature gradient from 20° C. to 99° C. at 0.07° C./s and data acquisitions collected at a rate of 8/° C. is used to measure the change in fluorescence as a function of temperature. Data analysis is performed using the Roche Light Cycler Software to determine the melting temperature (Tm ° C.) of each sample. A mean Tm ° C. for the negative control is calculated and subtracted from each of the samples to generate the ΔTm ° C. values for each of the ligands.
The relative binding affinity to hSTING c-terminal domain of the compounds of the present invention was determined by the above assay, and ΔTm ° C. values are shown in the following table 1.

T1 sequence (Q86WV6 whole entry H232R): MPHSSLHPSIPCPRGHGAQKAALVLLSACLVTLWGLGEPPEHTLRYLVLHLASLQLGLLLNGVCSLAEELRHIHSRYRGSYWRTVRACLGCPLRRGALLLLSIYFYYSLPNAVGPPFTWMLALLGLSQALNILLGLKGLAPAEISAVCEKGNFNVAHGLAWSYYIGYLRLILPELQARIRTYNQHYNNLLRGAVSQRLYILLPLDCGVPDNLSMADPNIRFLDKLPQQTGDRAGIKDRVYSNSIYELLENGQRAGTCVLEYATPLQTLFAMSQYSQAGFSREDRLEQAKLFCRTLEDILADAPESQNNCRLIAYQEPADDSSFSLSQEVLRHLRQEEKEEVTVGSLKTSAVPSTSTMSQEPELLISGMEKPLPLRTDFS

Usually EC50 stands for the concentration that produces a half-maximal response. A higher EC50 goes with lower potency in that assay. On to `CCn1nc(C)cc1C(=O)Nc1nc2cc(C(N)=O)cc(OCCCO)c2n1CCC[C@H]1COc2cc(C(N)=O)cc3nc(NC(=O)c4cc(C)nn4CC)n1c23` [Example 19, (S)-3-(3-(5-carbamoyl-2-(1-ethyl-3-methyl-1H-pyrazole-5-carboxamido)-7-(3-hydroxypropoxy)-1H-benzo[d]imidazol-1-yl)propyl)-2-(1-ethyl-3-methyl-1H-pyrazole-5-carboxamido)-3,4-dihydro-5-oxa-1,2a-diazaacenaphthylene-7-carboxamide], for which the EC50 in experiment [1] is 700 nM.

Compound `C=CC[C@H]1CN(CCCOC)c2cc(C(N)=O)cc3nc(NC(=O)c4cc(C)nn4CC)n1c23` [Example 30, (S)-4-allyl-2-(1-ethyl-3-methyl-1H-pyrazole-5-carboxamido)-6-(3-methoxypropyl)-5,6-dihydro-4H-imidazo[1,5,4-de]quinoxaline-8-carboxamide] returned an EC50 in experiment [2] of 1500 nM. This lies in the single-digit micromolar range.

In turn, `C=CCC1CCCOc2cc(C(N)=O)cc3nc(NC(=O)c4cc(C)nn4CC)n1c23` (stereo not shown) [Example 27, 10-allyl-1-(1-ethyl-3-methyl-1H-pyrazole-5-carboxamido)-7,8,9,10-tetrahydro-6-oxa-2,10a-diazacycloocta[cd]indene-4-carboxamide] showed an EC50 in experiment [2] of more than 20000 nM.

By ΔTm is commonly meant the change in melting temperature against a reference sample. For the compound `C=CCOc1cc(C(N)=O)cc2nc(NC(=O)c3cc(C)nn3CC)n(CCC[C@H]3COc4cc(C(N)=O)cc5nc(NC(=O)c6cc(C)nn6CC)n3c45)c12` [Example 25, (S)-3-(3-(7-(allyloxy)-5-carbamoyl-2-(1-ethyl-3-methyl-1H-pyrazole-5-carboxamido)-1H-benzo[d]imidazol-1-yl)propyl)-2-(1-ethyl-3-methyl-1H-pyrazole-5-carboxamido)-3,4-dihydro-5-oxa-1,2a-diazaacenaphthylene-7-carboxamide], the ΔTm at 100 µM in experiment [3] is 13 °C. Moreover, the midpoint of the response in experiment [2], the EC50, lay at 500 nM.

Compound `C=CC[C@H]1CN(C)c2cc(C(N)=O)cc3nc(NC(=O)c4cc(C)nn4CC)n1c23` [Example 31, (S)-4-allyl-2-(1-ethyl-3-methyl-1H-pyrazole-5-carboxamido)-6-methyl-5,6-dihydro-4H-imidazo[1,5,4-de]quinoxaline-8-carboxamide] displayed a half-maximal effective concentration (EC50) in experiment [2] of 2400 nM.

For the compound `CCn1nc(C)cc1C(=O)Nc1nc2cc(C(N)=O)cc(OCCCN(C)C)c2n1CCC[C@H]1COc2cc(C(N)=O)cc3nc(NC(=O)c4cc(C)nn4CC)n1c23` [Example 24, (S)-3-(3-(5-carbamoyl-7-(3-(dimethylamino)propoxy)-2-(1-ethyl-3-methyl-1H-pyrazole-5-carboxamido)-1H-benzo[d]imidazol-1-yl)propyl)-2-(1-ethyl-3-methyl-1H-pyrazole-5-carboxamido)-3,4-dihydro-5-oxa-1,2a-diazaacenaphthylene-7-carboxamide], the ΔTm at 100 µM in experiment [3] was 12 °C. This compound came in with an EC50 in experiment [2] of 350 nM.

For the compound `CCn1nc(C)cc1C(=O)Nc1nc2cc(C(N)=O)cc(OCCCOC)c2n1CCC[C@H]1COc2cc(C(N)=O)cc3nc(NC(=O)c4cc(C)nn4CC)n1c23` [Example 21, (S)-3-(3-(5-carbamoyl-2-(1-ethyl-3-methyl-1H-pyrazole-5-carboxamido)-7-(3-methoxypropoxy)-1H-benzo[d]imidazol-1-yl)propyl)-2-(1-ethyl-3-methyl-1H-pyrazole-5-carboxamido)-3,4-dihydro-5-oxa-1,2a-diazaacenaphthylene-7-carboxamide], in experiment [3], the thermal shift (ΔTm) at 100 µM turned out to be 13 °C. Besides, the EC50 in experiment [2] worked out at 60 nM.

As to `CCn1nc(C)cc1C(=O)Nc1nc2cc(C(N)=O)cc(OCCO)c2n1CCC[C@H]1COc2cc(C(N)=O)cc3nc(NC(=O)c4cc(C)nn4CC)n1c23` [Example 20, (S)-3-(3-(5-carbamoyl-2-(1-ethyl-3-methyl-1H-pyrazole-5-carboxamido)-7-(2-hydroxyethoxy)-1H-benzo[d]imidazol-1-yl)propyl)-2-(1-ethyl-3-methyl-1H-pyrazole-5-carboxamido)-3,4-dihydro-5-oxa-1,2a-diazaacenaphthylene-7-carboxamide], the ΔTm at 100 µM in experiment [3] was found to be 13 °C. The compound also registered an EC50 in experiment [2] of 100 nM.

As to `C=CC[C@H]1CNc2cc(C(N)=O)cc3nc(NC(=O)c4cc(C)nn4CC)n1c23` [Example 29, (S)-4-allyl-2-(1-ethyl-3-methyl-1H-pyrazole-5-carboxamido)-5,6-dihydro-4H-imidazo[1,5,4-de]quinoxaline-8-carboxamide], a half-maximal effect in experiment [2] (EC50) was put at 12000 nM.

`C/C=C/C[C@@H]1COc2cc(C(N)=O)cc3nc(NC(=O)c4cc(C)nn4CC)n1c23` [Example 5-1, (R,E)-3-(but-2-en-1-yl)-2-(1-ethyl-3-methyl-1H-pyrazole-5-carboxamido)-3,4-dihydro-5-oxa-1,2a-diazaacenaphthylene-7-carboxamide]: the EC50 in experiment [2] is more than 20000 nM.

For `CCC=CC[C@H]1COc2cc(C(N)=O)cc3nc(NC(=O)c4cc(C)nn4CC)n1c23` [Example 8, (S)-2-(1-ethyl-3-methyl-1H-pyrazole-5-carboxamido)-3-(pent-2-en-1-yl)-3,4-dihydro-5-oxa-1,2a-diazaacenaphthylene-7-carboxamide], the thermal shift (ΔTm) at 100 µM in experiment [3] turned out to be 7.5 °C. The compound also gave an EC50 in experiment [2] of 2600 nM.

With `CCn1nc(C)cc1C(=O)Nc1nc2cc(C(N)=O)cc3c2n1[C@@H](C/C=C/CC(CC(=O)c1cc2cc(OC)c(OC)cc2s1)C(=O)O)CO3` (stereo partly drawn) [Example 28, (E)-6-((S)-7-carbamoyl-2-(1-ethyl-3-methyl-1H-pyrazole-5-carboxamido)-3,4-dihydro-5-oxa-1,2a-diazaacenaphthylen-3-yl)-2-(2-(5,6-dimethoxybenzo[b]thiophen-2-yl)-2-oxoethyl)hex-4-enoic acid], the 50% effective concentration (EC50) in experiment [2] is more than 20000 nM.

On to `CCn1nc(C)cc1C(=O)Nc1nc2cc(C(N)=O)cc(OCCCOP(=O)(O)O)c2n1CCC[C@H]1COc2cc(C(N)=O)cc3nc(NC(=O)c4cc(C)nn4CC)n1c23` [Example 23, (S)-3-((5-carbamoyl-1-(3-(7-carbamoyl-2-(1-ethyl-3-methyl-1H-pyrazole-5-carboxamido)-3,4-dihydro-5-oxa-1,2a-diazaacenaphthylen-3-yl)propyl)-2-(1-ethyl-3-methyl-1H-pyrazole-5-carboxamido)-1H-benzo[d]imidazol-7-yl)oxy)propyl dihydrogen phosphate], for which, in experiment [3], the ΔTm at 100 µM was 11 °C. In experiment [2], this compound displayed an EC50 of 700 nM.
